Our source for the Km values is paper doi:10.1101/2024.08.30.610474v2 (biorxiv, 2025).

The subject of this assay is honeyeater HK3 (hexokinase 3). The assay is described as follows: hexokinase activity assay kit. The assay is classed as biochemical, Phylidonyris novaehollandiae. To be noted: 25 °C; 200 nM enzyme; glucose 0.009375-1 mM; substrate inhibition.

As a reminder, the Km is the substrate concentration at which the rate is half of its maximum. `OC[C@H]1OC(O)[C@H](O)[C@@H](O)[C@@H]1O` (stereo partly shown) [glucose]: the Km turned out to be 65.9 µM.
